Values joined by “and” are separate entries in the source; they are usually repeats but may differ in a detail not shown here. Identical values can stand only once.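 Five compound concentrations were applied to cells in 96-well plates for 48 hours; endpoints were derived by simple linear interpolation of the resulting dose-response curve. GI50 is the concentration that inhibits growth by half. TGI marks complete inhibition of growth.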 Where only a bound is given, the exact number is not on record here.

15 molecules from PubChem BioAssay (NCI) can be followed below.

Among the test systems are SF-268 CNS; HCT-15 colon; SN12C renal; SNB-19 CNS; HT29 colon; DU-145 prostate; M14 melanoma; NCI-H23 lung; UACC-62 melanoma; SK-MEL-5 melanoma.
What all share (experiment): growth of human tumour cells (NCI), 48 h

Turning to `Cc1[nH]c2ncn(/N=C/c3ccccc3O)c(=N)c2c1Cc1ccccc1`, the TGI in the assay with SF-268 CNS, in the assay with HCT-15 colon, in the assay with SN12C renal, in the assay with SNB-19 CNS, in the assay with HT29 colon and in the assay with DU-145 prostate was above 100 µM in each case. The TGI with M14 melanoma, with NCI-H23 lung and in the assay with UACC-62 melanoma was above 100 µM throughout.
With `CC1=NN(C(=O)CSc2nnc(SCC(=O)N3N=C(C)CC3(O)c3ccccc3)s2)C(O)(c2ccccc2)C1` (stereo not given), the TGI in the assay with SF-268 CNS is 47.2 µM; in the assay with HCT-15 colon, above 100 µM; in the assay with SN12C renal it was above 100 µM; with SNB-19 CNS it was above 100 µM; with DU-145 prostate, above 100 µM; with SK-MEL-5 melanoma it was above 100 µM. Further, the TGI is 36.1 µM in the assay on M14 melanoma, above 100 µM in the assay with NCI-H23 lung and 56.3 µM with UACC-62 melanoma.
Turning to `CCC1(O)CC(OC2CC(N(C)C)C(OC3CC4OC5CC(=O)C(C)OC5OC4C(C)O3)C(C)O2)c2c(cc3c(c2O)C(=O)c2c(O)ccc(O)c2C3=O)C1C(=O)OC` (stereo not given), the TGI is 0.117 µM and 0.245 µM and 1.17 µM in the assay on SNB-19 CNS; 0.0164 µM and 0.0136 µM in the assay on UACC-62 melanoma. Besides, the GI50 with M14 melanoma was 0.0245 µM; in the assay on UACC-62 melanoma, 0.00479 µM and 0.00857 µM.
For `C=C1C(=O)OC2/C=C(\C)C(OC(C)=O)C3OC3C(C)(O)CC(OC(=O)/C(C)=C/C)C12` (stereo not given), the TGI in the assay with SF-268 CNS amounted to 30.2 µM; in the assay on HCT-15 colon, 30.8 µM; with SN12C renal, 47.4 µM; with SNB-19 CNS it was 33.7 µM; in the assay on HT29 colon it was 32.7 µM; in the assay with SK-MEL-5 melanoma, 27.4 µM. Also, the TGI in the assay on M14 melanoma came out at 16 µM; with NCI-H23 lung, 34.4 µM; in the assay on UACC-62 melanoma, 23.5 µM.
With `COc1ccc(Cn2c(C)nc3c2C(=O)c2ccccc2C3=O)cc1`, the TGI in the assay on SF-268 CNS was 68.1 µM; in the assay on HCT-15 colon, above 75 µM; with SN12C renal, above 75 µM; in the assay on SNB-19 CNS, above 75 µM; in the assay on HT29 colon it was above 75 µM; in the assay with SK-MEL-5 melanoma, 16.6 µM. Besides, the TGI is 23.5 µM in the assay with M14 melanoma, 16.5 µM in the assay with NCI-H23 lung and 14 µM in the assay on UACC-62 melanoma.
`Nc1nc(Cl)cc(NCC2(O)CC(CO)C2)n1` (stereo not given): the TGI in the assay with SF-268 CNS, in the assay with HCT-15 colon, in the assay on SN12C renal, in the assay with SNB-19 CNS, with HT29 colon and in the assay on DU-145 prostate was above 100 µM throughout. Also, the TGI in the assay with SK-MEL-5 melanoma, in the assay with NCI-H23 lung and in the assay with UACC-62 melanoma was above 100 µM throughout.
Take `CC12CC3C(CC1SCC(=O)O2)C3(C)C` (stereo not given): the TGI with SF-268 CNS, in the assay on HCT-15 colon, in the assay on SN12C renal, in the assay on HT29 colon, in the assay with SK-MEL-5 melanoma and in the assay on M14 melanoma was above 100 µM in each case. In the assay with NCI-H23 lung, this molecule gave a TGI above 100 µM.
For the molecule `COc1cc(CCc2cccnc2)cc(OC)c1OC`, the TGI in the assay with SF-268 CNS, with HCT-15 colon, in the assay with SN12C renal, in the assay on SNB-19 CNS, in the assay with HT29 colon and in the assay with SK-MEL-5 melanoma was above 100 µM throughout. Also, the TGI with M14 melanoma, with NCI-H23 lung and in the assay on UACC-62 melanoma was above 100 µM each time.
For the molecule `COc1c2c(c3c(c1C1OC(C)[C@@H](C)O1)CC(C)(C)O3)C(=O)c1ccccc1C2=O` (stereo not given in full), the TGI in the assay with SF-268 CNS, with HCT-15 colon, with SN12C renal, with SNB-19 CNS, with HT29 colon and with SK-MEL-5 melanoma was above 100 µM in each case. The TGI in the assay with M14 melanoma, in the assay with NCI-H23 lung and in the assay with UACC-62 melanoma was above 100 µM throughout.
Consider `CC(=O)OCC1OC(Nc2[nH]c(=O)n(C)c(=O)c2-c2csc(N)n2)C(OC(C)=O)C(OC(C)=O)C1OC(C)=O` (stereo not given), for which the TGI in the assay with SF-268 CNS, with HCT-15 colon, in the assay with SN12C renal, in the assay with SNB-19 CNS, with HT29 colon and in the assay with SK-MEL-5 melanoma was above 100 µM in each case. For the same molecule, the TGI with M14 melanoma, in the assay with NCI-H23 lung and in the assay on UACC-62 melanoma was above 100 µM throughout.
For the molecule `Cc1nc2c(=S)[nH]ncc2[nH]1`, the TGI in the assay on HCT-15 colon, in the assay on SN12C renal, with SNB-19 CNS, in the assay with HT29 colon, in the assay with SK-MEL-5 melanoma and in the assay on M14 melanoma was above 100 µM each time. The TGI in the assay on NCI-H23 lung and in the assay on UACC-62 melanoma was above 100 µM each time.
On to `O=C1NC(N/N=C\C(O)C(O)C(O)CO)=N/C1=C/c1ccccc1` (stereo not given), for which the TGI in the assay with SF-268 CNS, in the assay on HCT-15 colon, with SN12C renal, in the assay on SNB-19 CNS, in the assay with HT29 colon and in the assay with DU-145 prostate was above 100 µM each time. Further, the TGI in the assay on SK-MEL-5 melanoma is above 100 µM; in the assay on M14 melanoma, > 100 µM and 76.9 µM; in the assay on NCI-H23 lung it was above 100 µM. For the same molecule, the GI50 was > 100 µM and 35.5 µM in the assay on HCT-15 colon; > 100 µM and 46.8 µM with SN12C renal; > 100 µM and 38.9 µM in the assay on SK-MEL-5 melanoma; > 100 µM and 30.4 µM with M14 melanoma.
In the case of `Cn1cnc([N+](=O)[O-])c1Sc1nc2cc(Cl)c(F)cc2[nH]1`, the TGI with SF-268 CNS was 29.5 µM; in the assay on HCT-15 colon it was 17.6 µM; with SN12C renal it was 29.7 µM; with SNB-19 CNS it was above 100 µM; in the assay with HT29 colon, 47.3 µM; with SK-MEL-5 melanoma it was 24 µM. Moreover, the TGI with M14 melanoma turned out to be 27.6 µM; with NCI-H23 lung, 31.3 µM; in the assay with UACC-62 melanoma, 28.6 µM.
For `O=C(Nc1cccc2ccccc12)Oc1ccccc1C1CCCCC1`, the TGI in the assay with SF-268 CNS is 98.9 µM; in the assay on HCT-15 colon it was 33.9 µM; in the assay with SN12C renal, 30.1 µM; with SNB-19 CNS, above 100 µM; in the assay on HT29 colon, 34.1 µM; with SK-MEL-5 melanoma, 28.8 µM. Also, the TGI with M14 melanoma is 32.4 µM; in the assay on NCI-H23 lung, 33.7 µM; with UACC-62 melanoma, 30.5 µM.
Take `O=C(O)CCCl`: the TGI in the assay on SF-268 CNS, in the assay with HCT-15 colon, in the assay with SN12C renal, in the assay on HT29 colon, in the assay on SK-MEL-5 melanoma and with M14 melanoma was above 5000 µM in each case. Besides, the figures for the TGI in the assay with NCI-H23 lung and with UACC-62 melanoma were above 5000 µM and 4740 µM, respectively.
